Test results published in patent US20090092603A1, “EARLY DIAGNOSIS AND TREATMENT OF DRUG RESISTANCE IN MUC1-POSITIVE CANCER” (priority 2007, published 2009).
Read-outs that look alike come from different tables or passages of the source.

System: HERCEPTIN-resistant BTRes1 cells
Conditions: drug with control Fab, compared to BT474

**Q.** What does the source list for `O=P1(N(CCCl)CCCl)NCCCO1` (centres unmarked) [cyclophosphamide]?
**A.** cytotoxic effect of the drug in cells that acquired HERCEPTIN® resistance: acquired resistance; cytotoxic effect of the drug in cells that acquired HERCEPTIN® resistance (listed as Cyclophosphamide): lost
